Publication PMC10047800, “Evaluation of Some Benzo[g]Quinazoline Derivatives as Antiviral Agents against Human Rotavirus Wa Strain: Biological Screening and Docking Study” (Current Issues in Molecular Biology, 2023)

Legend:
Assay type in all cases: cell-based
BGM cells = experiment: Cytotoxicity test (cell morphology, trypan blue viability): non-toxic dose on BGM cells; conditions: BGM cell line, 72 h
Procedure: (§1) It was carried out in accordance with the methods that were reported. In 1 mL of ethyl alcohol, 100 mg of sample was dissolved. A sample of 24 μL of 100× antibiotic–antimycotic mixture was added to 1 mL of sample to decontaminate it. Then, bi-fold dilutions were done to 100 μL of the original dissolved sample, and 100 μL of each dilution was inoculated in Hep-2, BGM, MA104, and CaCo-2 cell lines (obtained from the Holding Company for Biological Products & Vaccines VACSERA, Giza, Egypt) previously cultured in 96 multi well plates (Greiner-Bio one, Frickenhausen, Germany) to estimate the sample’s non-toxic dose. Inverted light microscope cell morphology and trypan blue dye exclusion cell viability tests were used for cytotoxicity assay.
(§2) The Hep-2, BGM, MA104, and CaCo-2 cell cultures were each seeded at a concentration of 2 × 10^5 cells/mL and grown individually in 96-well tissue culture plates (Greiner-Bio one, Frickenhausen, Germany). After an incubation period of 24 h at 37 °C in an atmosphere containing 5% (v/v) CO2, cell monolayers were confluent. At this point, the media was withdrawn from each well and replaced with 100 μL of bi-fold dilutions of the sample examined that were prepared in Dulbecco’s Modified Eagle Medium (DMEM) (GIBCO BRL, Darmstadt, Germany). For the purpose of cell controls, 100 μL of DMEM containing no samples was added. All the cultures were kept in an atmosphere with 5% (v/v) CO2 that was humidified and incubated at 37 °C for a total of 72 h. […] Morphology shifts were observed and scored.
(§3) Trypan blue dye was excluded from the experiment. […]. In 12-well tissue culture plates, Hep-2, BGM, MA104, and CaCo-2 cells (2 × 10^5 cells/mL) were cultivated (Greiner-Bio one, Frickenhausen, Germany). Following an incubation period of 24 h, 100 μL of tested sample dilutions, also known as bi-fold dilutions, were added to each well, and the results were examined in the same manner as described previously. After 72 h, the medium was removed, the cells were trypsinized, and an equal amount of an aqueous solution containing 0.4% (w/v) trypan blue dye was added. Counting the number of viable cells required phase contrast microscopes.

MA104 cells = experiment: Cytotoxicity test (cell morphology, trypan blue viability): non-toxic dose on MA104 cells; conditions: MA104 cell line, 72 h
Procedure: as §1, §2, §3

Hep-2 cells = experiment: Cytotoxicity test (cell morphology, trypan blue viability): non-toxic dose on Hep-2 cells; conditions: Hep-2 cell line, 72 h
Procedure: as §1, §2, §3

[1] = system: human rotavirus Wa strain; experiment: Rotavirus titers by plaque assay after treatment with non-toxic doses; conditions: virus 1 × 10^7 PFU/mL, Mean ± SD of three results
Procedure: The Rotavirus Wa strain, at a concentration of 1 × 10^7 PFU/mL, was mixed with non-toxic dilutions in a volume of 100 μL. At a temperature of 37 °C and 10 μg/mL of trypsin, the rotavirus stocks became infectious after 30 min. The mixture was incubated for half an hour at 37 °C. The Hep 2, BGM, and MA104 cell lines were seeded into the wells of 12 multi-well plates and then injected with 100 μL (10-fold) dilutions of the treated and untreated rotavirus Wa strain after an hour of adsorption at 37 °C in an atmosphere containing 5% CO2-water vapor without shaking. The plates were bounced at regular intervals to prevent the cells from drying out. Following the adsorption step, 1 mL of a 2× media consisting of Dulbecco’s Modified Eagle Medium, Gibco-BRL (DMEM), and 1% agarose were added to each well. The mixture of medium and agarose was given an additional 0.5 μg/mL of trypsin so that it could test for the rotavirus Wa strain. The plates were kept in an incubator with an environment containing 5% CO2 and water vapor at 37 °C. After being fixed with formalin and stained with crystal violet at a concentration of 0.4%, the plaques were counted. After that, the PFU/mL viral titers were determined.

SMILES	Non-Toxic Doses (BGM cells) [µg/mL]	Non-Toxic Doses (MA104 cells) [µg/mL]	Non-Toxic Doses (Hep-2 cells) [µg/mL]	% Reduction of Rotavirus Wa strain [1]
Cn1c(=S)[nH]c2cc3ccccc3cc2c1=O [Compound 1]	60	65	65	–
CCn1c(=S)[nH]c2cc3ccccc3cc2c1=O [Compound 2]	60	60	60	–
O=c1c2cc3ccccc3cc2[nH]c(=S)n1Cc1ccccc1 [Compound 3]	60	75	70	–
COc1cccc(CSc2nc3cc4ccccc4cc3c(=O)n2C)c1 [Compound 4]	50	55	55	–
CCn1c(SCc2cccc(OC)c2)nc2cc3ccccc3cc2c1=O [Compound 5]	55	55	60	–
COc1cccc(CSc2nc3cc4ccccc4cc3c(=O)n2Cc2ccccc2)c1 [Compound 6]	65	65	65	20% ± 4%
CCn1c(SCc2ccc(Cl)cc2)nc2cc3ccccc3cc2c1=O [Compound 7]	60	60	60	–
O=c1c2cc3ccccc3cc2nc(SCc2ccc(Cl)cc2)n1Cc1ccccc1 [Compound 8]	50	50	50	–
Cn1c(SCc2cccc(C#N)c2)nc2cc3ccccc3cc2c1=O [Compound 9]	65	75	70	–
CCn1c(SCc2ccc(C#N)cc2)nc2cc3ccccc3cc2c1=O [Compound 10]	50	55	50	–
N#Cc1ccc(CSc2nc3cc4ccccc4cc3c(=O)n2Cc2ccccc2)cc1 [Compound 11]	65	65	65	–
CCn1c(SCCCN2C(=O)c3ccccc3C2=O)nc2cc3ccccc3cc2c1=O [Compound 12]	25	30	30	–
O=C1c2ccccc2C(=O)N1CCCSc1nc2cc3ccccc3cc2c(=O)n1Cc1ccccc1 [Compound 13]	40	50	45	20% ± 3%
Cn1c(NN)nc2cc3ccccc3cc2c1=O [Compound 14]	55	60	60	–
CCn1c(NN)nc2cc3ccccc3cc2c1=O [Compound 15]	55	55	55	–
NNc1nc2cc3ccccc3cc2c(=O)n1Cc1ccccc1 [Compound 16]	60	60	65	–
